Experimental data published in US20080193566A1, “Use of high dose concentrations of gaseous nitric oxide” (priority 2007, published 2008).

Columns and labels:
[1] = tested on: A549-epithelial lung carcinoma cells; experiment: MTS proliferation assay, A549 cells exposed to 200 or 350 ppm gNO (Example 1); type: cell-based, human; design: MTS assay reading, Average / MTS assay reading, Corrected Average: unit not given here; settings: for MTS assay reading, Corrected Average: blank subtracted; for Survival: vs air control
Procedure: The purpose of this example is to illustrate the effect of continuous gaseous nitric oxide (gNO) 200 ppm and 350 ppm compared to air (control) on the survival of a representative line of cancer cells. Cancer cell lines (A549-epithelial lung carcinoma cells and H460-epithelial metastatic; large cell lung cancer cells) were prepared in F12 medium and suspended in six 96-well plates (3 treatment and 3 controls). […] The plates then were removed and cell viability assessed by an MTS proliferation assay.
(§1) When exposed to 350 ppm of gNO, however, cancer cell survival rates decrease dramatically.

[2] = tested on: H460-epithelial metastatic; large cell lung cancer cells; experiment: MTS proliferation assay, H460 cells exposed to 350 ppm gNO (Example 1); type: cell-based, human; settings: 350 ppm NO, 2 hours, RPMI medium
Description: The purpose of this example is to illustrate the effect of continuous gaseous nitric oxide (gNO) 200 ppm and 350 ppm compared to air (control) on the survival of a representative line of cancer cells. […] […] The plates then were removed and cell viability assessed by an MTS proliferation assay.
as §1

[3] = tested on: Staphylococcus aureus; experiment: S. aureus on blood agar plates exposed to 25,000 ppm gNO (Example 2); type: cell-based
Description: The purpose of this example is to observe the possibility of a novel bactericidal high dose (25,000 ppm) effect of gaseous nitric oxide (gNO) on an ATCC strain of Staphylococcous aureus plated on a blood agar media and determine a time effect of this dosage.
A closed environment treatment chamber was used (see, “A direct nitric oxide gas delivery system for bacterial and mammalian cell cultures,” A. Ghaffari, D. H. Neil, A. Ardakani, J. Road, A. Ghahary, C. C. Miller. Nitric Oxide 12(3):129-140, 2005, herein incorporated by reference in its entirety). The following steps were performed: • 1. Calibrated the AeroNOx analyzer as per standard procedure. • 2. Calibrated the closed environment treatment chamber as per standard procedure. • 3. In a 50 mL tube, known Staphylococcus aureus bacteria in 10 mL Nutrient Broth was grown overnight or for about 12 hours in a shaker incubator. • 4. Measured optical density of grown Staphylococcus aureus using a spectrophotometer set at 600 nm. Used original nutrient broth as a blank. O.D. should be 1.0±10%. • 5. Turned on closed environment treatment chamber. • 6. Labeled three plates: Air, NO+1 minute, NO+3 minutes. • 7. Immersed a sterile cotton swab into the bacterial mixture in the 50 mL tube and shaked off excess liquid. • 8. Swiped one plate entirely in two directions with the swab. • 9. […] After incubation, recorded results with digital pictures. • 14. […]

[4] = tested on: non-small cell lung cancer (NSCLC) cells lines; experiment: MTS cell proliferation assay, 25,000 ppm gNO (Example 4), NSCLC cell line panel; type: cell-based, human; settings: between 6 and 9 minutes, all five cancer cell lines
Description: The purpose of this example is to illustrate the tumorcidal activity of high-dosage gNO. We examined the cellular sensitivity to 25,000 ppm of gNO on 5 non-small cell lung cancer (NSCLC) cells lines by an MTS cell proliferation assay.
Human lung cancer cell lines A549, NCI-H23, NCI-H460, HTB-58, H2170, and H441 (commercially available from American Type Culture Collection (“ATCC”), Manassas, Va.) were maintained in culture medium recommended by ATCC. All media were supplemented with 1% penicillin/streptomycin and 10% fetal bovine serum (commercially available from Invitrogen Gibco-BRL, Burlington, Ontario, Canada). […]
After 24 hours, the A549, NCI-H23, NCI-H460, HTB-58, H2170 and H441 cells were treated with 25,000 ppm gNO or air (control) for 1 minute, 3 minutes, 6 minutes, 9 minutes, 10 minutes, 20 minutes, and 30 minutes. Immediately following treatment, the viability of the cells was determined using a colorimetric MTS (3-(4,5-dimethylthiazol-2-yl)-5-(3-carboxymethoxyphenyl)-2-(4-sulfophenyl)-2H-tetrazolium, inner salt) cell proliferation assay (commercially available as the CellTiter 96® Aqueous One Solution Cell Proliferation Assay (MTS) from Promega, Madison, Wis., USA) according to the manufacturer's protocol. […] Absorbance was measured at 490 nm for each well using a micro-plate reader (commercially available from Dynex Technologies, Chantilly, Va., USA). […]

[5] = Viability after 25,000 ppm gNO (Example 5), NHBE; type: cell-based; settings: human, normal human bronchial epithelial cells (NHBE)
Procedure: (§2) The purpose of this example is to illustrate the effects on normal human cell lines compared to the effects on cancerous cell lines of high-dosage gNO.
(§3) The above study was repeated. In addition to the A549, NCI-H23, NCI-H460, HTB-58, H2170 and H441 cells, four other cell lines were added—normal human bronchial epithelial cells (NHBE), normal human endothelial lung vascular cells (NHVE), normal human fibroblast cells (NHLF), and a squamous lung cancer cell line (H2170).
(§4) FIG. 8, embodiments A, B, C, and D, illustrate the viability of thee three normal human cell lines and one cancerous cell line to which 25,000 ppm gNO is administered for up to 15 minutes. The NHBE cells (embodiment A), experienced a decrease in viability after only 6 minutes of 25,000 ppm gNO administration, resulting in a viability of less than 10%. The NHVE cells (embodiment B) experienced a decrease in viability after only 6 minutes of 25,000 ppm gNO administration, resulting in a viability of less than 10%. The NHLF cells (embodiment C) also experienced a decrease in viability after only 6 minutes of 25,000 ppm gNO administration, resulting in a viability of about 30%. The H2170 cancerous cells experienced a dramatic decrease in viability after only 6 minutes of 25,000 ppm gNO administration, resulting in a viability of less than 10%.

[6] = Viability after 25,000 ppm gNO (Example 5), NHVE; type: cell-based; settings: human, normal human endothelial lung vascular cells (NHVE)
Procedure: as §2, §3, §4

[7] = Viability after 25,000 ppm gNO (Example 5), NHLF; type: cell-based; settings: human, normal human lung fibroblast cells (NHLF)
Procedure: as §2, §3, §4

[8] = tested on: cancer cell lines; experiment: Viability after 25,000 ppm gNO (Example 5, repeat), cancer cell line panel; type: cell-based, human; settings: between about 6 and about 9 minutes, all five cancer cell lines, repeat study
Procedure: as §2, §3

[9] = 200 ppm NO, 1 hour, HBSS medium
[10] = 200 ppm NO, 2.5 hours, F12 medium
[11] = 200 ppm NO, 2.5 hours, HBSS medium
[12] = 200 ppm NO, 3.5 hours, F12 medium
[13] = 200 ppm NO, 3.5 hours, HBSS medium
[14] = 350 ppm NO, 2 hours, F12 medium

SMILES: [N]=O [gNO, nitric oxide]
- MTS assay reading, Average ([1]; 200 ppm NO, 1 hour, F12 medium): 0.852
- MTS assay reading, Corrected Average ([1]; 200 ppm NO, 1 hour, F12 medium): 0.621
- Survival ([1]; 200 ppm NO, 1 hour, F12 medium): about 92%
- MTS assay reading, Average [1, 9]: 0.06
- MTS assay reading, Corrected Average [1, 9]: 0
- MTS assay reading, Average [1, 10]: 1.276
- MTS assay reading, Corrected Average [1, 10]: 0.918
- Survival [1, 10]: about 90%
- MTS assay reading, Average [1, 11]: 0.06
- MTS assay reading, Corrected Average [1, 11]: 0
- MTS assay reading, Average [1, 12]: 1.529
- MTS assay reading, Corrected Average [1, 12]: 1.059
- Survival [1, 12]: about 87%
- MTS assay reading, Average [1, 13]: 0.061
- MTS assay reading, Corrected Average [1, 13]: 0
- MTS assay reading, Average [1, 14]: 0.110
- MTS assay reading, Corrected Average [1, 14]: 0.009
- MTS assay reading, Average [2]: 0.158
- MTS assay reading, Corrected Average ([2]; blank subtracted): 0.037
- plate appearance after incubation (FIG. 4) ([3]; 1 minute of exposure): still shows signs of the S. aureus
- plate appearance after incubation (FIG. 5) ([3]; 3 minutes of exposure): no signs of the S. aureus
- cells killed [4]: 75-95%
- viability at 6 min, 25000 ppm [5]: < 10%
- viability at 6 min, 25000 ppm [6]: < 10%
- viability at 6 min, 25000 ppm ([7]; 6 minutes): ~30%
- viability at 15 min, 25000 ppm ([7]; after 15 minutes of exposure): 30%
- cells killed [8]: 75-95%
